Patent US8592426B2, “Aryl-benzocycloalkyl amide derivatives” (Hoffmann—La Roche Inc., priority 2011, dated 2013)
pIC50, pKi: −log10 of the molar value.

How the values were obtained:
Bradykinin-1 receptor [1] = biological target: T1, Bradykinin-1 receptor (Homo sapiens (Human), UniProt P46663); assay: Calcium mobilization assay (FLIPR, Fluo-4) in GeneBLAzer Bradykinin (B1)-NFAT-bla CHO-K1 cells; format: cell-based; conditions: antagonist activity; CHO-K1 cells stably overexpressing the human bradykinin 1 receptor; read-out: Ca mobilization Assay IC50
T1 sequence (P46663 whole entry): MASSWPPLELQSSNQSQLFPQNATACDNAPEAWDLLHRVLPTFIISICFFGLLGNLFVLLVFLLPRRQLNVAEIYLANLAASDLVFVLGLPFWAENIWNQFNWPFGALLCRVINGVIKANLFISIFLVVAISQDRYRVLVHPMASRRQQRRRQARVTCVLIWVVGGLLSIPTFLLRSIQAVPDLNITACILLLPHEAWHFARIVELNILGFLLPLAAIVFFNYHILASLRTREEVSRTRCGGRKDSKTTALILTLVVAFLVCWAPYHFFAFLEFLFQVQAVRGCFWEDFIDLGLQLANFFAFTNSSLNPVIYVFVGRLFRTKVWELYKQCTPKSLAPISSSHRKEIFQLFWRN
Experimental: Calcium Mobilization Assay
GeneBLAzer® Bradykinin (B1)-NFAT-bla CHO-K1 cells (from Invitrogen) stably overexpressing the human bradykinin 1 receptor were cultured in DMEM (high glucose) supplemented with 10% dialysed FBS, 1% NEAA (non essential amino acids) 1% penicillin/streptomycin, 1% G418 and 0.1 mg/ml zeocin.
For the assay cells were grown overnight in 384-well black clear flat bottom polystyrene plates (Costar) at 37° C. at 5% CO2. After washing with DMEM, 20 mM Hepes, 2.5 mM probenecid, 0.1% BSA (DMEM assay buffer) cells were loaded with 4 μM Fluo-4 in the same DMEM assay buffer for 2 hours at 30° C. Excess dye was removed and cells were washed with DMEM assay buffer. 384-well compound plates were prepared with DMEM assay buffer/0.5% DMSO with or without various concentrations of test compounds. Usually compounds were tested for agonist and antagonist activity.
Test compounds were added to the assay plate and agonist activity was monitored as fluorescence for 80 seconds with a FLIPR (488 nm excitation; 510-570 nm emission; Molecular Devices). After 20-30 min. of incubation at 30° C., 20 nM […] (R&D; Roche) was added and fluorescence was monitored again for 80 seconds. Increases in intracellular calcium are reported as maximum fluorescence after agonist exposure minus basal fluorescence before exposure.

Bradykinin-1 receptor [2] = biological target: T1, Bradykinin-1 receptor; assay: Receptor binding assay (B1R Binding Assay), [3H]-Kallidin (Des Arg10, Leu9) displacement; conditions: membranes from CHO-K1 cells overexpressing Bradykinin-1 receptor; 6 nM radioligand
Experimental: Binding assays were done with membranes from CHO-K1 cells overexpressing Bradykinin-1 receptor.
To determine non-specific binding 10 μM Lys-(Des-Arg^9)-Bradykinin (Bachem) was added. Membranes were harvested through GF/B (glass fiber filter; PerkinElmer) plates, equilibrated with 0.5% polyethylenimine, air dried at 50° C. for 2 h. Radioactivity was determined by counting in a topcounter (NXT Packard).

Compound | pIC50 (Bradykinin-1 receptor [1]) | pKi (Bradykinin-1 receptor [2])
Cc1nc(-c2c(F)cc(Cl)cc2-c2cc(F)c3c(c2)CCC3NC(=O)C2(NC(=O)c3ccnnc3)CC2)no1 (racemic) [Example 34, Pyridazine-4-carboxylic acid(1-{(rac)-5-[5-chloro-3-fluoro-2-(5-methyl-[1,2,4]oxadiazol-3-yl)-phenyl]-7-fluoro-indan-1-ylcarbamoyl}-cyclopropyl)-amide] | 9.22 | 7.82
Cc1nc(-c2c(F)cc(Cl)cc2-c2cnc3c(c2)CCC3NC(=O)C2(NC(=O)OC(C)(C)C)CC2)no1 (racemic) [Example 36, (1-{(rac)-3-[5-Chloro-3-fluoro-2-(5-methyl-[1,2,4]oxadiazol-3-yl)-phenyl]-6,7-dihydro-5H-[1]pyrindin-7-ylcarbamoyl}-cyclopropyl)-carbamic acid tert-butyl ester] | 8.44 | 6.44
Cc1nc(-c2c(F)cc(Cl)cc2-c2cnc3c(c2)CCC3NC(=O)C2(N)CC2)no1 (racemic) [Example 37, 1-Amino-cyclopropanecarboxylic acid{(rac)-3-[5-chloro-3-fluoro-2-(5-methyl-[1,2,4]oxadiazol-3-yl)-phenyl]-6,7-dihydro-5H-[1]pyrindin-7-yl}-amide] | 6.52 | 6.23
Cc1nc(-c2c(F)cc(Cl)cc2-c2cnc3c(c2)CCC3NC(=O)C2(NC(=O)c3ccnnc3)CC2)no1 (racemic) [Example 39, Pyridazine-4-carboxylic acid(1-{(rac) 3-[5-chloro-3-fluoro-2-(5-methyl-[1,2,4]oxadiazol-3-yl)-phenyl]-6,7-dihydro-5H-[1]pyrindin-7-ylcarbamoyl}-cyclopropyl)-amide] | 9.22 | 8.12
Cc1nc(-c2c(F)cc(Cl)cc2-c2ccc3c(c2)OCC3NC(=O)C2(N)CC2)no1 (racemic) [Example 45, 1-Amino-cyclopropanecarboxylic acid{(rac)-6-[5-chloro-3-fluoro-2-(5-methyl-[1,2,4]oxadiazol-3-yl)-phenyl]-2,3-dihydro-benzofuran-3-yl}-amide] | 6.15 | 5.82
Cc1nc(-c2c(F)cc(Cl)cc2-c2ccc3c(c2)OCC3NC(=O)C2(NC(=O)c3ccnnc3)CC2)no1 (racemic) [Example 46, Pyridazine-4-carboxylic acid(1-{(rac)-6-[5-chloro-3-fluoro-2-(5-methyl-[1,2,4]oxadiazol-3-yl)-phenyl]-2,3-dihydro-benzofuran-3-ylcarbamoyl}-cyclopropyl)-amide] | 8.33 | 7.72
COc1cc(C(=O)NC2(C(=O)NC3COc4cc(-c5cc(Cl)cc(F)c5-c5noc(C)n5)ccc43)CC2)on1 (racemic) [Example 48, 3-Methoxy-isoxazole-5-carboxylic acid(1-{(rac)-6-[5-chloro-3-fluoro-2-(5-methyl-[1,2,4]oxadiazol-3-yl)-phenyl]-2,3-dihydro-benzofuran-3-ylcarbamoyl}-cyclopropyl)-amide] | 8.40 | 7.62
Cn1nnc(-c2c(F)cc(Cl)cc2-c2cnc3c(c2)CCC3NC(=O)C2(NC(=O)OC(C)(C)C)CC2)n1 (racemic) [Example 54, (1-{(rac)-3-[5-Chloro-3-fluoro-2-(2-methyl-2H-tetrazol-5-yl)-phenyl]-6,7-dihydro-5H-[1]pyrindin-7-ylcarbamoyl}-cyclopropyl)-carbamic acid tert-butyl ester] | 8.24 | 7.20
Cn1nnc(-c2c(F)cc(Cl)cc2-c2cnc3c(c2)CCC3NC(=O)C2(N)CC2)n1 (racemic) [Example 55, 1-Amino-cyclopropanecarboxylic acid{(rac)-3-[5-chloro-3-fluoro-2-(2-methyl-2H-tetrazol-5-yl)-phenyl]-6,7-dihydro-5H-[1]pyrindin-7-yl}-amide] | 7.21 | 6.68

Now those with a higher pIC50 (Bradykinin-1 receptor [1]), led by results:

pIC50 (Bradykinin-1 receptor [1]) | pKi (Bradykinin-1 receptor [2]) | Compound
9.30 | 7.77 | COc1cc(C(=O)NC2(C(=O)NC3CCc4cc(-c5cc(Cl)cc(F)c5-c5noc(C)n5)cc(F)c43)CC2)on1 (racemic) [Example 35, 3-Methoxy-isoxazole-5-carboxylic acid(1-{(rac)-5-[5-chloro-3-fluoro-2-(5-methyl-[1,2,4]oxadiazol-3-yl)-phenyl]-7-fluoro-indan-1-ylcarbamoyl}-cyclopropyl)-amide]
9.70 | 8.52 | COc1cc(C(=O)NC2(C(=O)NC3CCc4cc(-c5cc(Cl)cc(F)c5-c5noc(C)n5)cnc43)CC2)on1 (racemic) [Example 38, 3-Methoxy-isoxazole-5-carboxylic acid(1-{(rac)-3-[5-chloro-3-fluoro-2-(5-methyl-[1,2,4]oxadiazol-3-yl)-phenyl]-6,7-dihydro-5H-[1]pyrindin-7-ylcarbamoyl}-cyclopropyl)-amide]
9.70 | 8.40 | COc1ncc(C(=O)NC2(C(=O)NC3CCc4cc(-c5cc(Cl)cc(F)c5-c5noc(C)n5)cnc43)CC2)cn1 (racemic) [Example 42, 2-Methoxy-pyrimidine-5-carboxylic acid(1-{(rac)-3-[5-chloro-3-fluoro-2-(5-methyl-[1,2,4]oxadiazol-3-yl)-phenyl]-6,7-dihydro-5H-[1]pyrindin-7-ylcarbamoyl}-cyclopropyl)-amide]
9.52 | 8.20 | Cc1nc(-c2c(F)cc(Cl)cc2-c2cnc3c(c2)CCC3NC(=O)C2(NC(=O)c3ccno3)CC2)no1 (racemic) [Example 43, Isoxazole-5-carboxylic acid(1-{(rac)-3-[5-chloro-3-fluoro-2-(5-methyl-[1,2,4]oxadiazol-3-yl)-phenyl]-6,7-dihydro-5H-[1]pyrindin-7-ylcarbamoyl}-cyclopropyl)-amide]
9.70 | 8.27 | COc1ncc(C(=O)NC2(C(=O)NC3COc4cc(-c5cc(Cl)cc(F)c5-c5noc(C)n5)ccc43)CC2)cn1 (racemic) [Example 47, 2-Methoxy-pyrimidine-5-carboxylic acid(1-{(rac)-6-[5-chloro-3-fluoro-2-(5-methyl-[1,2,4]oxadiazol-3-yl)-phenyl]-2,3-dihydro-benzofuran-3-ylcarbamoyl}-cyclopropyl)-amide]
9.70 | 8.35 | COc1ncc(C(=O)NC2(C(=O)NC3CCc4cc(-c5cc(Cl)cc(F)c5-c5nnn(C)n5)cnc43)CC2)cn1 (racemic) [Example 56, 2-Methoxy-pyrimidine-5-carboxylic acid(1-{(rac)-3-[5-chloro-3-fluoro-2-(2-methyl-2H-tetrazol-5-yl)-phenyl]-6,7-dihydro-5H-[1]pyrindin-7-ylcarbamoyl}-cyclopropyl)-amide]
9.40 | 8.24 | Cn1nnc(-c2c(F)cc(Cl)cc2-c2cnc3c(c2)CCC3NC(=O)C2(NC(=O)c3ccno3)CC2)n1 (racemic) [Example 57, Isoxazole-5-carboxylic acid(1-{(rac)-3-[5-chloro-3-fluoro-2-(2-methyl-2H-tetrazol-5-yl)-phenyl]-6,7-dihydro-5H-[1]pyrindin-7-ylcarbamoyl}-cyclopropyl)-amide]
9.40 | 8.20 | Cc1cc(C(=O)NC2(C(=O)NC3CCc4cc(-c5cc(Cl)cc(F)c5-c5nnn(C)n5)cnc43)CC2)on1 (racemic) [Example 58, 3-Methyl-isoxazole-5-carboxylic acid(1-{(rac)-3-[5-chloro-3-fluoro-2-(2-methyl-2H-tetrazol-5-yl)-phenyl]-6,7-dihydro-5H-[1]pyrindin-7-ylcarbamoyl}-cyclopropyl)-amide]
